Data reported in paper PMC6251817 (Acta Pharmaceutica Sinica. B, 2018).

What follows are compounds tested against T1, PTP1B (recombinant human GST-PTP1B) (Homo sapiens, UniProt P18031) (assay: pNPP hydrolysis, absorbance […] nm).
T1 sequence (P18031 1-435): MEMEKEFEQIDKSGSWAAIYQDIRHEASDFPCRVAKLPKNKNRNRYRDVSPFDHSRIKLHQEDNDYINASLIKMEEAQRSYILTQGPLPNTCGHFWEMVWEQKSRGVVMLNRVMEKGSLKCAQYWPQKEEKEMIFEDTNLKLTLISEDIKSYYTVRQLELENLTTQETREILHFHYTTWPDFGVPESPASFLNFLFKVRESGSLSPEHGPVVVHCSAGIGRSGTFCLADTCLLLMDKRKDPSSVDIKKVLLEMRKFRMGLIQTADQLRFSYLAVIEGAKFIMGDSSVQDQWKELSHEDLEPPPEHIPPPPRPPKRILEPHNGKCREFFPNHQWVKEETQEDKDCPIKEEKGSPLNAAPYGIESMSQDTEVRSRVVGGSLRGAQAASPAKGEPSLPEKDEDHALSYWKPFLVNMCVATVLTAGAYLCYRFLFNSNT
Type: biochemical

SMILES	IC50
CN(C)c1ccc(C(=O)CCc2ccc(C(=O)Nc3ccc(C(=O)Nc4ccccc4)cc3)cc2)cc1 [compound 4, 4-(3-(4-(Dimethylamino)phenyl)-3-oxopropyl)-N-(4-(phenylcarbamoyl)phenyl)benzamide]	4.9 µM
COc1ccc(C(=O)CCc2ccc(C(=O)Nc3ccc(C(=O)Nc4ccc(N5CCOCC5)cc4)cc3)cc2)cc1 [compound 8, 4-(3-(4-Methoxyphenyl)-3-oxopropyl)-N-(4-((4-morpholinophenyl)carbamoyl)phenyl)benzamide]	7.26 µM
O=C(/C=C/c1ccc(C(=O)Nc2ccc(C(=O)Nc3ccccc3)cc2)cc1)c1ccc(F)cc1 [compound 9, (E)-4-(3-(4-Fluorophenyl)-3-oxoprop-1-en-1-yl)-N-(4-(phenylcarbamoyl)phenyl)benzamide]	8.81 µM
Cc1ccc(C(=O)/C=C/c2ccc(C(=O)Nc3ccc(C(=O)Nc4ccccc4)cc3)cc2)cc1 [compound 10, (E)-4-(3-Oxo-3-(p-tolyl)prop-1-en-1-yl)-N-(4-(phenylcarbamoyl)phenyl)benzamide]	5.23 µM
COc1ccc(/C=C/C(=O)c2ccc(C(=O)Nc3ccc(C(=O)Nc4ccccc4)cc3)cc2)cc1 [compound 15, (E)-4-(3-(4-Methoxyphenyl)acryloyl)-N-(4-(phenylcarbamoyl)phenyl)benzamide]	7.74 µM
COc1ccc(C(=O)NCc2ccc(C(=O)Nc3ccc(C(=O)Nc4ccccc4)cc3)cc2)cc1 [compound 18, 4-Methoxy-N-(4-((4-(phenylcarbamoyl)phenyl)carbamoyl)benzyl)benzamide]	8.16 µM
COc1ccc(C(=O)NCc2ccc(C(=O)Nc3ccc(C(=O)Nc4ccc(N5CCOCC5)cc4)cc3)cc2)cc1 [compound 20, 4-Methoxy-N-(4-((4-((4-morpholinophenyl)carbamoyl)phenyl)carbamoyl)benzyl)benzamide]	6.85 µM
COc1ccc(C(=O)NCc2ccc(C(=O)Nc3ccc(C(=O)Nc4ccccc4OC)cc3)cc2)cc1 [compound 23, 4-Methoxy-N-(4-((4-((2-methoxyphenyl)carbamoyl)phenyl)carbamoyl)benzyl)benzamide]	4.76 µM
COc1ccc(CC(=O)Nc2ccc(NC(=O)c3ccc(CCC(=O)c4ccc(OC)cc4)cc3)cc2)cc1 [compound 27, 4-(3-(4-Methoxyphenyl)-3-oxopropyl)-N-(4-(2-(4-methoxyphenyl)acetamido)phenyl)benzamide]	4.19 µM
COc1ccc(CC(=O)Nc2ccc(NC(=O)c3ccc(/C=C/C(=O)c4ccc(OC)cc4)cc3)cc2)cc1 [compound 28, (E)-4-(3-(4-Methoxyphenyl)-3-oxoprop-1-en-1-yl)-N-(4-(2-(4-methoxyphenyl)acetamido)phenyl)benzamide]	5.91 µM
COc1ccc(/C=C/C(=O)c2ccc(C(=O)Nc3ccc(NC(=O)Cc4ccc(OC)cc4)cc3)cc2)cc1 [compound 29, (E)-N-(4-(2-(4-Methoxyphenyl)acetamido)phenyl)-4-(3-(4-methoxyphenyl)acryloyl)benzamide]	4.7 µM
COc1ccc(C(=O)NCc2ccc(C(=O)Nc3ccc(NC(=O)c4ccccc4)cc3)cc2)cc1 [compound 31, N-(4-Benzamidophenyl)-4-((4-methoxybenzamido)methyl)benzamide]	6.22 µM
COc1ccc(C(=O)CCc2ccc(C(=O)Nc3cccc(C(=O)Nc4cc(OC)cc(OC)c4)c3)cc2)cc1 [compound 33, N-(3,5-Dimethoxyphenyl)-3-(4-(3-(4-methoxyphenyl)-3-oxopropyl)benzamido)benzamide]	24.3 µM
